Data: paper PMC12396409, “Screening and hit evaluation of a microbial metabolite library against the pathogenic Plasmodium falciparum and Toxoplasma gondii parasites” (International Journal for Parasitology: Drugs and Drug …, 2025)
Where two headings read alike, the source gives them in different places.

Experiments:
[1] = test system: T. gondii RH strain (RH-Tub-eYFP) tachyzoites; assay: microbe, parasite or virus in culture; assay type: cell-based, Toxoplasma gondii; conditions: 72 h
[2] = test system: P. falciparum 3D7 parasites; assay: P. falciparum growth inhibition assay, 1-cycle (72 h treatment), SYBR DNA staining (library screen at 2 μg/mL and dose-response); assay type: cell-based, Plasmodium falciparum
[3] = test system: P. falciparum 3D7 parasites; assay: P. falciparum growth inhibition assay, 2-cycle (120 h treatment), delayed-death screen and dose-response; assay type: cell-based, Plasmodium falciparum; conditions: for 3) Fold change (72 h/120 h): growth at 72 h / growth at 120 h
[4] = T. gondii, parasite screen 2 μg/mL, % growth, replicate 1
[5] = T. gondii, parasite screen 2 μg/mL, % growth, replicate 2
[6] = P. falciparum, 72 h, parasite screen 2 μg/mL, % growth, replicate 1
[7] = P. falciparum, 72 h, parasite screen 2 μg/mL, % growth, replicate 2
[8] = P. falciparum, 120 h, parasite screen 2 μg/mL, % growth, replicate 1
[9] = P. falciparum, 120 h, parasite screen 2 μg/mL, % growth, replicate 2
[10] = Toxoplasma gondii, T. gondii, screen at 2 μg/mL, replicate 1, read-out: Tg_72h_%Growth_Rep1
[11] = Toxoplasma gondii, T. gondii, screen at 2 μg/mL, replicate 2, read-out: Tg_72h_%Growth_Rep2
[12] = Plasmodium falciparum, 3D7; P. falciparum, 2 μg/mL, 72 h; read-out: 1) Growth (%) at 72 h
[13] = Plasmodium falciparum, 3D7, P. falciparum, 72 h, screen at 2 μg/mL, replicate 1, read-out: Pf_72h_%Growth_Rep1
[14] = Plasmodium falciparum, 3D7, P. falciparum, 72 h, screen at 2 μg/mL, replicate 2, read-out: Pf_72h_%Growth_Rep2
[15] = Plasmodium falciparum, 3D7; P. falciparum, 2 μg/mL, 120 h; read-out: 2) Growth (%) at 120 h
[16] = Plasmodium falciparum, 3D7, P. falciparum, 120 h, screen at 2 μg/mL, replicate 1, read-out: Pf_120h_%Growth_Rep1
[17] = Plasmodium falciparum, 3D7, P. falciparum, 120 h, screen at 2 μg/mL, replicate 2, read-out: Pf_120h_%Growth_Rep2
[18] = T. gondii, screen at 2 μg/mL, replicate 1
[19] = T. gondii, screen at 2 μg/mL, replicate 2
[20] = P. falciparum, 72 h, screen at 2 μg/mL, replicate 1
[21] = P. falciparum, 72 h, screen at 2 μg/mL, replicate 2
[22] = P. falciparum, 120 h, screen at 2 μg/mL, replicate 1
[23] = P. falciparum, 120 h, screen at 2 μg/mL, replicate 2

Cc1cc(O)c2c3c1C(=O)C=C1C(C)(C)C(=O)c4c(O)cc(O)c(c4C13O)C2=O (centres unmarked) [Resistoflavine]
Tg_72h_%Growth_Rep1 [1, 4]: 250.44% | Tg_72h_%Growth_Rep2 [1, 5]: 135.44% | Pf_72h_%Growth_Rep1 [2, 6]: 97.04% | Pf_72h_%Growth_Rep2 [2, 7]: 109.63% | Pf_120h_%Growth_Rep1 [3, 8]: 116.77% | Pf_120h_%Growth_Rep2 [3, 9]: 93.07%

C=C[C@]1(C)C[C@@H](OC(=O)CSCCN(CC)CC)[C@]2(C)[C@H](C)CC[C@]3(CCC(=O)[C@H]32)[C@@H](C)[C@@H]1O [Tiamulin, reference compound]
percent parasite growth at 2 µg/mL [1, 10]: 55.8% | percent parasite growth at 2 µg/mL [1, 11]: 29.4% | IC50 ([1]; Toxoplasma gondii, RH strain, mean ± S.D., n ≥ 3, read-out: IC50 (μM), T. gondii (converted)): > 1 µM | Screen (T. gondii) ([1]; library screen at 2 μg/mL, RH strain): I | activity at 2 µg/mL [2, 12]: 55% | activity at 2 µg/mL [2, 13]: 61.3% | activity at 2 µg/mL [2, 14]: 48.7% | IC50 ([2]; Plasmodium falciparum, 3D7, 72 h treatment, mean ± S.D., n ≥ 3, read-out: IC50 (μM), P. falciparum): > 1 µM | delayed-death activity in the 120 h screen against P. falciparum ([3]; 2 μg/mL, criteria: ≥40 % growth at 72 h, ≤20 % growth at 120 h, at least 5-fold): delayed-death activity | 3) Fold change (72 h/120 h) ([3]; P. falciparum, 2 μg/mL): 7.0 | IC50 ([3]; Plasmodium falciparum, 3D7, read-out: IC50, P. falciparum, 120 h dose-response (delayed-death)): ~1000 nM | activity at 2 µg/mL [3, 15]: 7.81% | activity at 2 µg/mL [3, 16]: 6.75% | activity at 2 µg/mL [3, 17]: 8.86%

C[C@@H]1Cc2ccc(C(=O)N[C@@H](Cc3ccccc3)C(=O)O)c(O)c2C(=O)O1 [BIA-O1196]
Tg_72h_%Growth_Rep1 ([1]; T. gondii, parasite screen at 2 μg/mL, % growth, replicate 1): 126.36% | Tg_72h_%Growth_Rep2 ([1]; T. gondii, parasite screen at 2 μg/mL, % growth, replicate 2): 89.16% | Pf_72h_%Growth_Rep1 ([2]; P. falciparum 3D7, 72 h, parasite screen at 2 μg/mL, % growth, replicate 1): 83.68% | Pf_72h_%Growth_Rep2 ([2]; P. falciparum 3D7, 72 h, parasite screen at 2 μg/mL, % growth, replicate 2): 90.59% | Pf_120h_%Growth_Rep1 ([3]; P. falciparum 3D7, 120 h, parasite screen at 2 μg/mL, % growth, replicate 1): 89.68% | Pf_120h_%Growth_Rep2 ([3]; P. falciparum 3D7, 120 h, parasite screen at 2 μg/mL, % growth, replicate 2): 126.27%

CC1=C2C(=CO[C@H](C)[C@H]2C)C(O)=C(C(=O)O)C1=O [Citrinin]
percent parasite growth at 2 µg/mL [1, 10]: 87.8% | percent parasite growth at 2 µg/mL [1, 11]: 82% | activity at 2 µg/mL ([2]; Plasmodium falciparum, 3D7, 72 h, P. falciparum, 72 h, screen at 2 μg/mL, replicate 1, read-out: Pf_72h_%Growth_Rep1): 89.1% | activity at 2 µg/mL ([2]; Plasmodium falciparum, 3D7, 72 h, P. falciparum, 72 h, screen at 2 μg/mL, replicate 2, read-out: Pf_72h_%Growth_Rep2): 84% | activity at 2 µg/mL ([3]; Plasmodium falciparum, 3D7, 120 h, P. falciparum, 120 h, screen at 2 μg/mL, replicate 1, read-out: Pf_120h_%Growth_Rep1): 138% | activity at 2 µg/mL ([3]; Plasmodium falciparum, 3D7, 120 h, P. falciparum, 120 h, screen at 2 μg/mL, replicate 2, read-out: Pf_120h_%Growth_Rep2): 82.5%

O=C(O)c1cccc2nc3ccccc3nc12 [Tubermycin B]
Tg_72h_%Growth_Rep1 [1, 18]: 87.24% | Tg_72h_%Growth_Rep2 [1, 19]: 96.39% | Pf_72h_%Growth_Rep1 [2, 20]: 44.49% | Pf_72h_%Growth_Rep2 [2, 21]: 34.95% | Pf_120h_%Growth_Rep1 [3, 22]: 88.83% | Pf_120h_%Growth_Rep2 [3, 23]: 26.83%

COC12c3c(C)cc(O)c4c(=O)occ(c34)C(=O)C1C13COC(=O)c4c(O)cc(C)c(c41)C(=O)C2C3OC(C)=O (centres unmarked) [Duclauxin]
Tg_72h_%Growth_Rep1 ([1]; library screen at 2 μg/mL, % growth, replicate 1): 149.61% | Tg_72h_%Growth_Rep2 ([1]; library screen at 2 μg/mL, % growth, replicate 2): 92.65% | Pf_72h_%Growth_Rep1 ([2]; library screen at 2 μg/mL, 72 h, % growth, replicate 1): 87.43% | Pf_72h_%Growth_Rep2 ([2]; library screen at 2 μg/mL, 72 h, % growth, replicate 2): 79.39% | Pf_120h_%Growth_Rep1 ([3]; library screen at 2 μg/mL, 120 h, % growth, replicate 1): 87.90% | Pf_120h_%Growth_Rep2 ([3]; library screen at 2 μg/mL, 120 h, % growth, replicate 2): 120.62%

CC[C@H]1OC(=O)C[C@@H](O)[C@H](C)[C@@H](O[C@@H]2O[C@H](C)[C@@H](O[C@H]3C[C@@](C)(O)[C@@H](O)[C@H](C)O3)[C@H](N(C)C)[C@H]2O)[C@@H](CC=O)C[C@@H](C)C(=O)/C=C/C(C)=C/[C@@H]1CO[C@@H]1O[C@H](C)[C@@H](O)[C@@H](OC)[C@H]1OC [Tylosin, reference compound]
percent parasite growth at 2 µg/mL [1, 10]: 29.4% | percent parasite growth at 2 µg/mL [1, 11]: 23.4% | activity at 2 µg/mL [2, 12]: 39.2% | activity at 2 µg/mL [2, 13]: 39.8% | activity at 2 µg/mL [2, 14]: 38.7% | 3) Fold change (72 h/120 h) ([3]; P. falciparum, 2 μg/mL): 2.3 | activity at 2 µg/mL [3, 15]: 17.3% | activity at 2 µg/mL [3, 16]: 31.5% | activity at 2 µg/mL [3, 17]: 3.04%

CCCCC[C@@]1(OC(=O)CCC(=O)O)CC[C@]2(CC[C@H](C)[C@@H](C/C=C(C)/C=C/[C@H](O)[C@@H](C)/C=C/C(=O)O)O2)O[C@H]1/C=C/C(C)=C/C(=O)O [Reveromycin D]
Tg_72h_%Growth_Rep1 [1, 4]: 109.29% | Tg_72h_%Growth_Rep2 [1, 5]: 94.72% | Pf_72h_%Growth_Rep1 [2, 6]: 62.63% | Pf_72h_%Growth_Rep2 [2, 7]: 21.41% | Pf_120h_%Growth_Rep1 [3, 8]: 51.02% | Pf_120h_%Growth_Rep2 [3, 9]: 15.46%

COc1cc(OC)c2c(OC)c3ccoc3nc2c1OC [Trimethoxydictamnine, 5,7,8-]
Tg_72h_%Growth_Rep1 [1, 18]: 134.56% | Tg_72h_%Growth_Rep2 [1, 19]: 84.32% | Pf_72h_%Growth_Rep1 [2, 20]: 85.08% | Pf_72h_%Growth_Rep2 [2, 21]: 101.79% | Pf_120h_%Growth_Rep1 [3, 22]: 91.88% | Pf_120h_%Growth_Rep2 [3, 23]: 81.51%
